Test results as given in patent US5066652A, “Thiomethyl and sulfinylmethyl derivatives having gastric acid antisectetory activity and pharmaceutical compositions containing them” (Chiesi Farmaceutici S.p.A., priority 1988, dated 1991).
Counter-ions that a name gives are not always drawn. Like-named read-outs stand apart in the source and are kept apart here.

What was measured:
[1] = test system: secretion of hydrochloric acid in the stomach; assay: Lumen-perfused rat stomach in situ (histamine-induced hypersecretion); assay type: in vivo; conditions: for ED50: histamine 35 mcg/kg/min, 3 hours; for ED50 / α (intrinsic activity): intraduodenal; for α (intrinsic activity): histamine; for PR = potency ratio: in comparison with omeprazole
Method: Lumen-perfused rat stomach in situ The experiments were done according to Ghosh M. N. and Schild H. O. (Br. J. Pharmacol. 13, 54-61, 1958). […] After a midline abdominal incision, a PVC tube was inserted into the stomach via the esophagus and the stomach was perfused with saline (37° C.) at a rate of 1 ml/min. A second tube draining the pylorus was inserted through the abdominal wall for collection of gastric secretion. […] After equilibration of basal secretion an hypersecretion was induced by infusion of histamine 35 mcg/kg/min, through the femoral vein. […] Mean gastric output was determined for a 3 hours test period following drug administration. The last 30 minutes interval prior to dosing was used as a control. The dose-response relationship was established using the maximum inhibition obtained at each individual dose.

[2] = test system: secretion of hydrochloric acid in the stomach (Shay ulcers); assay: Antisecretory activity - Shay ulcers (pylorus-ligated rat); assay type: in vivo; conditions: for Emax: Rattus norvegicus, α=1 represents 100% inhibition of gastric acid hypersecretion, read-out: α (approximate value of intrinsic activity); for Emax / ED50: 2 h; for ED50: rat, pylorus ligation, intraduodenal or intravenous; for PR (potency ratio in comparison with Omeprazole): ratio of mean ED50 on the 3 parameters of test compound to mean ED50 of omeprazole
Method: Antisecretory activity--Shay ulcers The gastric secretory inhibitory activity of the compounds of general formula (I) was determined in case of hypersecretion induced in the rat by ligation of gastroduodenal junction according to the procedure described by Shay (Shay H. et al, Gasgroenterology 5, 43-61, 1945). […] Thereafter, they were fasted for 24 hours, with water ad libitum, which period was sufficient to assure a good gastric emptying, then laparectomized under light ether anesthesia, so as to allow to effect a pylorus ligation as closer as possible to the gastroduodenal junction. Two hours after the ligation, the animals were killed by means of an ether excess and stomaches were removed. Gastric contents were recovered, after filtration through a gauze, and placed in graduated test-tubes and centrifuged at 3000×g for 15 minutes. The following parameters were evaluated on the surnatant: volume (ml); pH; free acidity by conversion of pH into H^+ μEq by means of Moore table (Ann. New York Acad. Sci. 1967, 866-874); titrable acidity, by titration of an amount with 0.02N NaOH, using phenolphtalein as the indicator. […] The results were expressed as percent inhibition of hypersecretion induced by pylorus ligation in the control rats. The obtained results are reported in table 3 as: ED50 (μmol/kg) calculated on the basis of the equation of the linear tract of does-effect curves obtained with the test compounds on volume, free and titrable acidities; […]

[3] = Toxicity after single administration (acute toxicity, oral); conditions: mouse, in vivo, mice, p.o., lethality 7 days after treatment, Probits method, read-out: Acute Toxicity (DL50 approx. mg/kg p.o.)
Method: Toxicity after single administration.
The tests have been carried out in IVA:NMRI (SPF) mice fasted with water ad libitum since 18 hours before treatment.
The compounds were administered by the oral route, at constant volume (10 ml/kg) in a 0.2% aqueous solution of Tween 80.
On the basis of lethality observed 7 days after the treatment, the approximate LD50 were determined according to the Probits method.

[4] = test system: gastric hemorrhagic lesions induced by absolute ethanol; assay: Protection against gastric lesions induced in rats by necrotizing agents (absolute ethanol); assay type: in vivo; conditions: po; rat, gavage 30 minutes before 1 ml absolute ethanol; lesion score ≤ 2 considered protected
Method: Protection against gastric lesions induced in rats by necrotizing agents
The experiments were done on male rats weighing 260-300 g starved (with free access to water) for 18 hours.
Absolute ethanol was administered by gavage in the volume of 1 ml.
Test substances or the vehicle alone for the controls were given by gavage 30 minutes before the necrotizing agent in a 5% suspension of methylcellulose volume 2.5 ml kg^-1. One hour after administration of the necrotizing agent, the animals were killed and examined for lesions of the glandular portion of the gastric mucosa. The lesions presenting as blackish lesions grouped in patches of varying size, usually parallel to the major axis of the stomach, were scored according to the following arbitrary scale:
1=hyperemic mucosa, or up to 3 small patches;
2=from 4 to 10 small patches;
3=more than 10 small or up to 3 medium-sized patches;
4=from 4 to 6 medium-sized patches;
5=more than 6 medium-sized or up to 3 large patches;
6=from 4 to 6 large patches;
7=from 7 to 10 large patches;
8=more than 10 large patches or extensive necrotic zones.
"Small"0 was defined as up to 2 mm across (max diameter), "medium-sized" as between 2 and 4 mm across and "large" as more than 4 mm across.
Animals with gastric lesion score ≤ 2 were considered protected.
ED50 values were calculated according to Wilcoxon method.
The results are expressed in table 5.

stomach of animals = conditions: animals treated over a long period; cited from earlier work
[5] = read-out: ED50 free acid output
[6] = read-out: ED50 titratable acid output
[7] = free acid output, read-out: ED50 free acid output
[8] = secretion volume, read-out: ED50 volume
[9] = titratable acid output, read-out: ED50 titratable acid output

Row | SMILES | ED50 [1, 5] [µmol/kg] | ED50 [1, 6] [µmol/kg] | α (intrinsic activity) [1] | PR = potency ratio [1] | Emax [2] [%] | ED50 [2, 7] [µmol/kg] | ED50 [2, 8] [µmol/kg] | ED50 [2, 9] [µmol/kg] | PR (potency ratio in comparison with Omeprazole) [2] | LD50 at 168 h [3] [mg/kg] | ED50 [4] [mg/kg] | carcinomas at the bottom of the stomach (stomach of animals)
1 | CN/C(=N/CCSCc1nc[nH]c1C)NC#N [Cimetidine, reference compound] | 11.8 | 11.1 | 1 | 5.1 | 100 | 24.1 | 47.3 | 23.9 | 11,5 |  |  | 
2 | [O-][S+](Cc1ccc2ccccc2n1)c1nc2cccnc2[nH]1 (stereo not shown) [LI, 2-(2'-quinolylmethylsulfinyl)imidazo-[4,5-b]-pyridine] |  |  |  |  | 100 | 4.8 | 10.3 | 5.6 | 2,5 | ~750 | 20 | 
3 | COc1ccc2[nH]c([S+]([O-])Cc3ncc(C)c(OC)c3C)nc2c1 (stereo not shown) [Omeprazole HCL, reference compound] |  |  |  |  |  |  |  |  |  | ~1400 |  | 
4 | COc1ccc2[nH]c([S+]([O-])Cc3ncc(C)c(OC)c3C)nc2c1 (stereo not shown) [Omeprazole, reference compound] | 2.23 | 2.3 | 1 |  | 100 | 1.8 | 4.2 | 2.3 |  |  | 73 | high incidence of carcinomas
5 | Cn1ccnc1SCc1nc2cc(C(=O)c3ccccc3)ccc2[nH]1 [X, 1-methyl-2-[2'-(5'-benzoyl)-benzimidazolylmethylthio]imidazole. 2H3 PO4] |  |  |  |  | 70 to 80 | 2.7 | 10 | 2.7 | 1,9 | ~1400 |  | 
6 | CN(C)c1ccccc1CSc1nccn1C [XI, 1-methyl-2-[2'-(N,N-dimethylanilyl)methylthio]imidazole. 2HCl] | 60.6 | 40.9 | 1 | 22.4 | 100 | 31.9 | 40 | 29.6 | 12,2 | ~450 | 20 | 
7 | CN(C)c1ccccc1CSc1nccn1-c1cccc(F)c1 [XIX, 1-(3'-fluorophenyl)-2-[2'-(N,N-dimethylanilyl)methylthio]imidazole.2HCl] | 32.2 | 26.7 | 1 | 13.0 | 100 | 47.3 | 108 | 64.3 | 26,4 | ~1000 | 70 | 
8 | COc1ccc(C)nc1CSc1ncnc2[nH]cnc12 [XLIII] |  |  |  |  | 100 | 83 | 89 | 81.6 | 30,6 |  | 60 | 
9 | COc1ccnc(CSc2nccn2-c2cccc(F)c2)c1C [XX, 1-(3'-fluorophenyl)-2-[2'-(3'-methyl-4'-methoxypyridyl)methylthio]imidazole] |  |  |  |  | 70 to 80 | 65 | 80 | 65 | 25,3 |  | 50 | 
10 | Fc1cccc(-n2ccnc2SCc2nc3ccccc3[nH]2)c1 [XXI, 1-(3'-fluorophenyl)-2-[2'-(benzimidazolyl)methylthio]imidazole.2HCl] |  |  |  |  | 100 | 27 | 38 | 29 | 11,3 | ~900 | 70 | 
11 | c1ccc(-n2ccnc2SCc2nc3ccccc3[nH]2)cc1 [XXII, 1-phenyl-2-[2'-(benzimidazolyl)methylthio]imidazole.2HCl] |  |  |  |  | 80 | 16.8 | 30.5 | 22.3 | 8,4 | ~1000 | 63 | 
12 | Fc1ccc(-n2ccnc2SCc2nc3ccccc3[nH]2)cc1 [XXIV] |  |  |  |  | 70 to 80 | 12.5 | 20.5 | 15.7 | 5,9 | ~2000 | 47 | 
13 | COc1ccc(-n2ccnc2SCc2ccccc2N(C)C)cc1 [XXIX, 1-(4'-methoxyphenyl)-2-[2 '-(N,N-dimethylanilyl)methylthio]imidazole.2HCl] |  |  |  |  | 100 | 86.1 | 144 | 107 | 40,7 | > 2000 |  | 
14 | CN(C)c1ccccc1CSc1nccn1-c1ccccc1 [XXVIII, 1-phenyl-2-[2'-(N,N-dimethylanilyl)methylthio]imidazole. 2HCl] | 31.4 | 19.9 | 1 | 11.3 | 100 | 40.6 | 55.4 | 44.9 | 17,0 |  |  | 
15 | COc1ccnc(C[S+]([O-])c2nccn2-c2cccc(F)c2)c1C (stereo not shown) [XXXVII, 1-(3'-fluorophenyl)-2-[2'-(3'-methyl-4'-methoxypyridyl)methylsulphinyl]imidazole] |  |  |  |  | 60 to 80 | 73 | 80 | 80 | 28,1 |  |  | 
16 | CN(C)c1ccccc1CSc1nccn1-c1ccc(F)cc1 [XXX] |  |  |  |  | 100 | 9.2 | 21.1 | 11.2 | 5,0 |  |  | 
